According to patent US5691310A, “Methods of treatment using proANF peptides” (priority 1995, dated 1997):

Assays:
[1] = tested on: renal medullary Na+-K+-ATPase; assay: inhibition of renal medullary Na+-K+-ATPase activity; type: biochemical; settings: for inhibition of renal medullary Na+-K+-ATPase activity: 10^-11 M
porcine aorta = assay: vasodilation of porcine aortic strips preconstricted with 0.3 micromolar phenylephrine; set-up: species or system pig; settings: for increase in cyclic GMP levels over baseline levels: associated with vasodilation of porcine aorta; for vasodilation: porcine aorta
Procedure: 30 Kg pigs are sacrificed, and aortic strips are harvested. The strips are attached to F-60 transducer (Narco-BioSystems, Houston, Tex.) and attached to a physiography (Narco-BioSystems) while being submerged in a muscle tissue bath comprising a Krebs Ringer solution at 37° C., with 95% 02 -5% CO2, bubbled through the bath. Percentage vasodilation is measured versus time (as reported in FIG. 1) after preconstriction with 0.3 micromolar phenylephrine.

[2] = tested on: particulate guanylate cyclase; assay: cyclic GMP / particulate guanylate cyclase activation in cultured smooth muscle cells and porcine aorta; type: cell-based; settings: cultured smooth muscle cells
Munich-Wistar rats = assay: rat clearance model (diuresis and salt excretion); type: in vivo
Procedure: The same three peptides and ANF from Example I are tested using the rat clearance model. Six control rats and six experimental Munich-Wistar rats, each weighing 150-200 grams, are used for each peptide, with catheters being placed in both jugular veins and in the femoral artery. The ureters are cannulated for simultaneous urine collections with femoral artery blood collections.
After inserting the catheters, a stabilization of one hour is allowed. A 10 μg/kg bolus of each of the respective human sequences of the peptides is given via the jugular vein to six experimental rats followed by a sustaining infusion of 0.1 μg/kg/min for 60 minutes. Blood and urine samples are collected at 20 minute intervals during this 60 minute infusion. In both the control and experimental animals, hematocrits and plasma sodium values remained at the same levels pre- and post-infusion while blood pressure decreased with each of these peptides (see Attachment B).

[3] = tested on: particulate guanylate cyclase; assay: particulate guanylate cyclase activity in the kidney; type: biochemical; settings: 1 μM; whole kidney homogenates, renal cortical and medullary membranes, isolated distal nephron
Procedure: Testing is also carried out to determine biologic effects of these peptides by measuring their effects on particulate guanylate activity in the kidney.

[4] = overcoming the negative ionotropic effect of Verapamil
healthy human subjects = assay: infusion into healthy human subjects; type: in vivo; settings: healthy humans; for urine volume / urine flow (in words): 100 ng/kg body wt per minute for 1 hour i.v.; for sodium excretion compared to baseline (in words): 100 ng/kg body wt per minute for 60 minutes; for systolic and diastolic blood pressures: 100 ng/kg/min i.v. for 60 minutes
Procedure: Infusion of these peptides into healthy human subjects was performed as follows: Human pro-ANF 1-30, pro-ANF 31-67, and pro-ANF 79-98, and hANF (i.e., pro-ANF […], were synthesized by Peninsula Laboratories (Belmont, Calif.). High pressure liquid chromatography (HPLC) analysis was performed on a sample of each of the four peptides to ensure purity. The peptides were dissolved in a sterile 0.9% saline solution to a concentration of 100 μg/ml and dispensed in 2 and 5 ml aliquots into sealed sterile vials. At the time of dispensing, randomly selected vials were tested for pyrogens and sterility. Prior to labeling the vials, the actual peptide content of the dispensed solution were determined by direct radioimmunoassay to account for any possible absorption of the respective peptides to the walls of the vials. All vials were then stored at -80° C. until thawed for individual study.
Normal healthy subjects were chosen on the basis of age (between 20 and 50 years), physical examination and biochemical screenings. The subjects consumed their normal diets prior to testing. The subjects fasted overnight and were tested in the morning in the seated position. Intravenous catheters were placed bilaterally for the administration of pro-hANF 1-30, pro-hANF 31-67, pro-hANF 79-98 and hANF [pro-hANF 99-126] and for blood sampling. After completion of a 45-minute equilibration period, there were three 60-minute phases of the study: baseline, experimental infusion (60 minutes) and recovery (3 hours). The baseline phase consisted of two 30 minute urine collection periods, the experimental phase consisted of three 20 minute urine and plasma collection periods, and the recovery phase consisted of two 30 minute urine and plasma collection periods each hour for three hours post-infusion. Urine output was replaced on a milliliter per milliliter basis throughout the study by administering oral water or orange juice. Urine samples were obtained by voiding at the designated collection periods.
The 36 subjects were divided into 6 groups. One group (i.e., the control group) received a placebo infusion of 0.9% sodium chloride during the experimental infusion phase. […] The four remaining groups of six subjects each received human pro-hANF 1-30, pro-hANF 31-67, pro-hANF 79-98 and hANF. The four groups received the peptides by continuous infusion at the rate of 0.1 μg/kg per minute. The volume administered per hour during the experimental infusion phase was 10 ml for all four peptides and the placebo. All infusions were given by a constant-rate infusion pump, with the final concentrations of prohANFs adjusted for the subjects' body weight. The subjects heart rate and cuff blood pressure were taken at 5 minute intervals throughout the study. The excreted urine was analyzed for sodium concentration.

[5] = tested on: human subjects with class II New York Heart Association congestive heart failure; assay: infusion into human subjects with congestive heart failure; type: in vivo; settings: for diuretic properties (in words): congestive heart failure patients; for urine output increase at the end of the 60 minute infusion: congestive heart failure, 0.1 μg/kg body wt/minute; for increase of sodium excretion: human subjects with congestive heart failure
Procedure: Human proANF's 1-30, 31-67, 79-98, and 99-126 (i.e., ANF) were infused into human subjects with class II New York Heart Association congestive heart failure. An identical protocol to that used in example V where these peptides were infused into healthy human subjects was utilized. (See Attachment C for a detailed description of this protocol). The human subjects with congestive heart failure received an identical dose (0.1 μg/kg body wt/minute for 60 minutes) that the healthy human subjects received.

[6] = biological target: particulate guanylate cyclase of porcine aorta and cultured smooth muscle cells (porcine (aorta); not stated for the cultured smooth muscle cells)
[7] = tested on: rat or other vertebrate species; assay: biologic effects of peptides of the rat ANF prohormone; type: in vivo; settings: peptides of the rat sequence, in the rat or other vertebrate species
Excerpt: At first it was thought that only the C-terminus (i.e., ANF) of ANF prohormone circulated. Before any portion of the rest of the prohormone was known to circulate Dr. Frossman patented the whole rat prohormone which he called Cardiodilatin and portion(s) thereof (U.S. Pat. No. 4,751,284). In this patent Dr. Frossman patented the rat sequence of the ANF prohormone. In his patent he stated that parts of the whole prohormone had activity if the C-terminal end (i.e., ANF) was attached to it. In publications he has stated that the rest of the rat prohormone only has activity if the C-terminus (i.e., ANF with its intact ring structure) of the rat prohormone is attached to it (Frossman W.G., Contr. Nephrol. 50:1-13, 1986) (see Attachment A). Dr. Frossman has never published that other peptide(s) originating from the rat ANF prohormone that he patented have any biologic activity by themselves. Dr. Frossman has further stated on page 11 of Attachment A "I think that the 28 a.a. […] It has been over 10 years since Frossmann submitted his patent and he has never published that any portion of cardiodilatin (i.e., rat ANF prohormone) has any biologic activity if the respective portion is not attached to the ANF portion of cardiodilatin.

[8] = period A, control period (before peptide)
[9] = period B, 1st 60min experimental period, 10 μg/kg bolus then 0.1 μg/kg/min
[10] = period C, 2nd 60min experimental period

COc1ccc2cc([C@H](C)C(=O)O)ccc2c1 [Naproxen, reference compound]
effect on the peptides' inhibition of renal medullary Na+-K+-ATPase ([1]; 0.5 mM): completely blocked each of these peptides'effects on renal medullary Na+-K+-ATPase

H-NPMYNAVSNADLMDFKNLLDHLEEKMPLED-OH [proANF 1-30, H-Asn-Pro-Met-Tyr-Asn-Ala-Val-Ser-Asn-Ala-Asp-Leu-Met-Asp-Phe-Lys-Asn-Leu- Leu-Asp-His-Leu-Glu-Glu-Lys-Met-Pro-Leu-Glu-Asp-OH]
increase in cyclic GMP levels over baseline levels (porcine aorta): four-to-five
vasodilation (porcine aorta): cause vasodilation
cyclic GMP levels [2]: increase cyclic GMP levels
UNa V, urinary sodium excretion rate (Munich-Wistar rats; [8]): 36.37 ± 8.09 μeq-min^-1 -g kidney wt^-1
UNa V, urinary sodium excretion rate (Munich-Wistar rats; [9]): 224.30 ± 60.34 μeq-min^-1 -g kidney wt^-1
UNa V, urinary sodium excretion rate (Munich-Wistar rats; [10]): 384.98 ± 124.39 μeq-min^-1 -g kidney wt^-1
particulate guanylate cyclase activity [3]: enhance particulate guanylate cyclase
negative ionotropic (slowing heartbeat) effect of Verapamil [4]: can overcome the negative ionotropic (slowing heartbeat) effect
increase of urine flow (healthy human subjects): 4-12 fold
urine volume / urine flow (in words) (healthy human subjects): increase in urine volume
sodium excretion compared to baseline (in words) (healthy human subjects): significantly (P<0.05) increased sodium excretion
systolic and diastolic blood pressures (healthy human subjects): decreasing systolic and diastolic blood pressures
diuretic properties (in words) [5]: stronger diuretic properties than ANF
urine output increase at the end of the 60 minute infusion [5]: 3- to 6 fold
increase of sodium excretion [5]: three-to-eight
inhibition of renal medullary Na+-K+-ATPase activity [1]: Inhibition of renal medullary Na+-K+-ATPase activity

H-SSDRSALLKSKLRALLTAPR-OH [proANF 79-98, H-Ser-Ser-Asp-Arg-Ser-Ala-Leu-Leu-Lys-Ser-Lys-Leu-Arg-Ala-Leu-Leu-Thr-Ala- Pro-Arg-OH]
increase in cyclic GMP levels over baseline levels (porcine aorta): four-to-five
vasodilation (porcine aorta): cause vasodilation
cyclic GMP levels [2]: increase cyclic GMP levels
UNa V, urinary sodium excretion rate (Munich-Wistar rats; [8]): 90.88 ± 77.76 μeq-min^-1 -g kidney wt^-1
UNa V, urinary sodium excretion rate (Munich-Wistar rats; [9]): 363.98 ± 261.85 μeq-min^-1 -g kidney wt^-1
UNa V, urinary sodium excretion rate (Munich-Wistar rats; [10]): 564.22 ± 315.48 μeq-min^-1 -g kidney wt^-1
particulate guanylate cyclase activity [3]: enhance particulate guanylate cyclase
negative ionotropic (slowing heartbeat) effect of Verapamil [4]: can overcome the negative ionotropic (slowing heartbeat) effect
increase of urine flow (healthy human subjects): 4-12 fold
urine volume / urine flow (in words) (healthy human subjects): increase in urine volume
sodium excretion compared to baseline (in words) (healthy human subjects): each of these respective peptides except proANF 79-98 significantly (P<0.05) increased sodium excretion
systolic and diastolic blood pressures (healthy human subjects): decreasing systolic and diastolic blood pressures
diuretic properties (in words) [5]: stronger diuretic properties than ANF
urine output increase at the end of the 60 minute infusion [5]: 3- to 6 fold
increase of sodium excretion [5]: no significant increase in sodium excretion
inhibition of renal medullary Na+-K+-ATPase activity [1]: Inhibition of renal medullary Na+-K+-ATPase activity

angiotensin II [comparison peptide in the Na+-K+-ATPase test, reference compound]
inhibition of renal medullary Na+-K+-ATPase activity [1]: Inhibition of renal medullary Na+-K+-ATPase activity

human atrial natriuretic factor (ANF) (from UniProt P01160) (peptide)
half maximal activation (ED50) of guanylate cyclase activity [6]: 10 nM

rat proANF 1-30: peptide consisting of amino acids 1-30 from the rat ANF prohormone (NPVYSAVSNTDLMDFKNLLDHLEEKMPVED; UniProt P01161 25-54, looked up, fragment)
biologic effect(s) (blood pressure lowering, sodium excretion or diuretic effects) [7]: no biologic effect(s)

rat proANF 31-67: peptide consisting of amino acids 31-67 from the rat ANF prohormone (EVMPPQALSEQTDEAGAALSSLSEVPPWTGEVNPSQR; UniProt P01161 55-91, looked up, fragment)
biologic effect(s) (blood pressure lowering, sodium excretion or diuretic effects) [7]: no biologic effect(s)

rat proANF 79-98: peptide consisting of amino acids 79-98 from the rat ANF prohormone (PSDRSALLKSKLRALLAGPR; UniProt P01161 103-122, looked up, fragment)
biologic effect(s) (blood pressure lowering, sodium excretion or diuretic effects) [7]: no biologic effect(s)

B1: human pro-ANF (79-98) (peptide)
peptide: H-SSDRSALLKSKLRALLTAPR-OH
half maximal activation (ED50) of guanylate cyclase activity [6]: 10 nM
